Results reported in US20240408180A1, “IONIC LIQUIDS FOR DRUG DELIVERY” (PRESIDENT AND FELLOWS OF HARVARD COLLEGE, priority 2021, published 2024).
Blank lines part the entries; values can stand above or below the substance they belong to.

Columns and labels:
insulin [1] = molecular target: T1, insulin (Homo sapiens, UniProt P01308); test: Circular dichroism of insulin secondary structure in ILs; format: physicochemical; details: one hour at room temperature and at 37 C; insulin ~6 U/mL (0.2 mg/mL); versus saline negative control
T1 construct: in this case insulin around 5.8 kDa; purchased Sigma Aldrich (St. Louis, MO)
T1 sequence (P01308 25-54 limits assumed, species assumed): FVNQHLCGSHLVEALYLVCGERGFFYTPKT
T1 sequence (P01308 90-110 limits assumed, species assumed): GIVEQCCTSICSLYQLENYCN
Procedure: Circular dichroism was used to assess insulin secondary structure (FIG. 2). The experiment was performed after incubation at room temperature and at 37° C. (physiological temperature) for one hour. This was done to assess whether the heat change associated with subcutaneous injection may affect the insulin structure. […] “aCG” refers to acetylcholine glycolic acid and “aCH” refers to acetylcholine hexenoic acid. Insulin concentration was ˜6 U/mL (0.2 mg/mL).

antibody [2] = test: Antibody stability by circular dichroism; format: physicochemical; details: one hour at room temperature; versus fresh antibody control
Procedure: (§1) Antibody stability was next tested. Circular dichroism and SDS-PAGE were used to assess antibody stability (FIG. 5). […] Additionally, SDS-PAGE was used to assess whether acetylcholine caused aggregation (of particular importance for large beta-sheet biologics like antibodies). […] Both CD and SDS-PAGE were performed after incubation at room temperature for one hour.

antibody [3] = test: Antibody aggregation by SDS-PAGE; format: physicochemical; details: one hour at room temperature; versus control
Procedure: as §1

dendritic cell line = test: In vitro transfection with mRNA nanoparticles coated with DES; format: cell-based; details: 4 hours incubation, flow cytometry
Procedure: IL delivery of mRNA in vitro was assessed. The in vitro transfection experiments were performed in a dendritic cell line with mRNA nanoparticles and indicate that acetylcholine hexenoic acid DES can enhance mRNA treatments. The particles were incubated with acetylcholine DES solutions to “coat” the particles. The cells were incubated with the particles for the 4 hours before analyzing with flow cytometry.

insulin [4] = molecular target: T1, insulin; test: Stressed aging test of insulin-DES formulations (transmittance); format: physicochemical; details: 50 hours at 37 C with constant shaking
Procedure: Successful dissolution of insulin was determined by the turbidity of the formulation, assessed by converting absorbance at 540 nm to transmittance.^16 The percent transmittance threshold for the successful formulation was set at 80% as this was the mean transmittance for the clinical comparator (Humalog). Low transmittance values are indicative of insoluble insulin aggregates. All but two formulations met this criterion (FIG. 13). To further screen the remaining DES formulations, a stressed aging test was performed to determine their stability for 50 hours at 37° C. with constant shaking.
(§2) The insulin-DES formations were first analyzed for initial transmittance to confirm that there was no insulin aggregation immediately after formulation preparation. Subsequently, formulations that passed initial screening were plated in a black-walled 96 well plate (replicates of three) and subjected to a stressed aging assay in which the plate was incubated at 37° C. with constant shaking. Absorbance readings were taken every 15 minutes for 50 hours to assess the change in transmittance over time. For cold chain stability, formulations were tested in a similar manner, without constant shaking, at 4° C. for 28 days.

insulin [5] = molecular target: T1, insulin; test: Cold-chain stability of insulin-DES formulations (transmittance); format: physicochemical; details: 4 C over 28 days
Procedure: (§3) The final screening was performed to assess cold-chain stability and confirm monomer conformational stability. […] The stability of hexenoate-based formulations was further confirmed by assessing the protein's secondary structure through circular dichroism (CD). […] CD spectra integrity was also confirmed by measuring the high-tension voltage, which was maintained below 500 V for the relevant insulin CD wavelengths (FIG. 14).
as §2

insulin [6] = molecular target: T1, insulin; test: Circular dichroism of insulin-DES formulations; format: physicochemical; details: 37 C for two hours
Procedure: as §3
Protein Stability Assessment Using Circular Dichroism and SDS-PAGE. […] In preparation for circular dichroism (CD) and SDS-PAGE, the post-dialysis concentration was measured with UV Spectrophotometry (Thermo Scientific NanoDrop One) and adjusted to 200 μg/mL. CD was performed by loading quartz cuvettes (Starna Cells Spectrosil Quartz 1-Q-1), with 200 μL of the sample, into a CD spectrophotometer (Jasco J-815). Mean ellipticity was measured from 190 to 250 nm.

Type I human collagen = molecular target: T2, Type I human collagen (Homo sapiens, UniProt P02452+P08123); test: Fluorescence polarization of Cy5.5-labeled insulin mixed with collagen; format: binding; details: Cy5.5-labeled insulin in aCH versus saline control
T2 construct: purchased Advanced BioMatrix (Carlsbad, CA)
T2 sequence (P02452 162-1218 limits assumed): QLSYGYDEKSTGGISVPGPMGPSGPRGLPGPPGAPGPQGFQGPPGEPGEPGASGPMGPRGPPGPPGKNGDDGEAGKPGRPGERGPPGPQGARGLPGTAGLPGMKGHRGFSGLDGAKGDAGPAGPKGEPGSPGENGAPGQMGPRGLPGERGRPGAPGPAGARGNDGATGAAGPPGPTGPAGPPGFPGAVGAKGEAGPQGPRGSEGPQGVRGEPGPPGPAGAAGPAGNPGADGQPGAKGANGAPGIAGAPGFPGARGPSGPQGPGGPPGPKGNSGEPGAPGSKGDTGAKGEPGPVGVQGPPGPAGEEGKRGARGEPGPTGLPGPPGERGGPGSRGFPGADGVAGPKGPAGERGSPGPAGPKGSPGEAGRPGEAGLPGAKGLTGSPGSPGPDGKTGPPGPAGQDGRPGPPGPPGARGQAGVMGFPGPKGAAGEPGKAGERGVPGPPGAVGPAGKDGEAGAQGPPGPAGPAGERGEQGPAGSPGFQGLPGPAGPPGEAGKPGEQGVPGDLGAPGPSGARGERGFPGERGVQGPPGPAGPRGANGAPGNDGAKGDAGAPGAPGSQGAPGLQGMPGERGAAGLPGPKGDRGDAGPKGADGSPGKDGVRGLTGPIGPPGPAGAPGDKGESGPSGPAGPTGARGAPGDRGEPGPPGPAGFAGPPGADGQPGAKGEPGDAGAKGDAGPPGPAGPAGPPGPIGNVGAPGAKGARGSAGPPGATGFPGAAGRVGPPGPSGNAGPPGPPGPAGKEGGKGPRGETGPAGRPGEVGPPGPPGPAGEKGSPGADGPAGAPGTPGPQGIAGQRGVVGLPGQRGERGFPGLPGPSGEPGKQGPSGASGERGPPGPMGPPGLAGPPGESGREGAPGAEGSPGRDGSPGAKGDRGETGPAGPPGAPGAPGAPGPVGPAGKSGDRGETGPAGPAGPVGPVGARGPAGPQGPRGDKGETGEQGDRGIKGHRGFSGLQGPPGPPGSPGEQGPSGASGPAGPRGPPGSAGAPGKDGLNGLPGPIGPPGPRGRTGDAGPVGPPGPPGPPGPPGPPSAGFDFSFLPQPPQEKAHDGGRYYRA
T2 sequence (P08123 80-1119 limits assumed): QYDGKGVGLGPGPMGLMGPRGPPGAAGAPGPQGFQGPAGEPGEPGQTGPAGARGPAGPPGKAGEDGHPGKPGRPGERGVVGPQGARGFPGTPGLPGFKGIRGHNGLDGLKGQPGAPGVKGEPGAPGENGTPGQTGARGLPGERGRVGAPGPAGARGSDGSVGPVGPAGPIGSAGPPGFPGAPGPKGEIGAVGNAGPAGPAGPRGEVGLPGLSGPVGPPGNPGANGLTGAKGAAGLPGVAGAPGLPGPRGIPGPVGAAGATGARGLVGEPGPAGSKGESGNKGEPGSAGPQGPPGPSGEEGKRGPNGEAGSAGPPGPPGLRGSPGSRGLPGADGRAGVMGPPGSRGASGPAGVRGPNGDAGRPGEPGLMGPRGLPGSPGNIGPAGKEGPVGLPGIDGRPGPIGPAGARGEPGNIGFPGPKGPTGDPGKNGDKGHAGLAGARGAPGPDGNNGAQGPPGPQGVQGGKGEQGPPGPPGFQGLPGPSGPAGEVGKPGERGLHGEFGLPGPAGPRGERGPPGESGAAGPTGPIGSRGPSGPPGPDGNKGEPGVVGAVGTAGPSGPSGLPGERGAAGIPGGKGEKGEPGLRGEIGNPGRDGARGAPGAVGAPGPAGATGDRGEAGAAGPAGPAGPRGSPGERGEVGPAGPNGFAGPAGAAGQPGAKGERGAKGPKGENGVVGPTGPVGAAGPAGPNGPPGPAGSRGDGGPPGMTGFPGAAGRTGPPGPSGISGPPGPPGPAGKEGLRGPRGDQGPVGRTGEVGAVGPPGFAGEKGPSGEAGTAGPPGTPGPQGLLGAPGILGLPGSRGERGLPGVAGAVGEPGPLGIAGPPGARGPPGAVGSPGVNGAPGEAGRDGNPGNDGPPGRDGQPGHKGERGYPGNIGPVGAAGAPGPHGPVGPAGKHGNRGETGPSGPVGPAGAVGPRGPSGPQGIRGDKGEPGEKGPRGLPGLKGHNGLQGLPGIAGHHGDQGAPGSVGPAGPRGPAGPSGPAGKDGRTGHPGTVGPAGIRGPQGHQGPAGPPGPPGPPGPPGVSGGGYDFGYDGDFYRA
Procedure: The ability of SPADE to mitigate the interactions of proteins with ECM was assessed using the lead DES, aCH. A schematic representation of the hypothesized mechanism is depicted in FIG. 8A. SPADE (right) is hypothesized to decrease non-specific binding between administered therapeutic proteins and subcutaneous extracellular proteins such as collagen to allow for faster and greater absorption of protein biologics. To test this hypothesis, fluorescence polarization (FP) was performed and dynamic light scattering (DLS) utilized to determine the degree of collagen-insulin association. […] The average polarization was 1.5 times higher for the control group than the SPADE group. To further confirm the FP results and compare against Humalog, DLS was used to measure the average particle diameter (z-avg) after mixing insulin formulations with collagen, as the z-avg for insulin-bound collagen would increase with fewer unbound insulin molecules remaining and only the collagen or collagen-insulin complex being detected. The initial average z-avg for both the Humalog- and SPADE-insulin-collagen mixtures were approximately 100 nm. […]
Physical stability of the formulations in the presence of collagen was further assessed using fluorescence polarization (FP). […] When insulin is fluorescently labeled and excited with polarized light the perpendicular and parallel polarized light emission can be measured. […]

rituximab [7] = test: SPADE-mAb stability by SDS-PAGE; format: physicochemical; details: for rituximab stability by SDS-PAGE: 37 C for 2 and 24 hours
Procedure: (§4) Described herein the exploration of whether SPADE can also enhance the absorption of a large protein biologic, namely monoclonal antibody rituximab (SPADE-mAb), that would benefit from greater absorption from subcutaneous administration. Due to the clinical requirement of higher dosing for subcutaneous antibody formulation compared to insulin, we first assessed DES concentration for stable SPADE formulation with rituximab using SDS-PAGE and CD. Formulations were prepared with various DES concentrations and consistent rituximab concentrations and incubated at 37° C. for 2 and 24 hours. After incubation, the samples were dialyzed against sodium phosphate to remove DES, and the resulting samples were diluted to the same concentration via UV-Vis spectrophotometry before SDS-PAGE and CD analyses. […] To further confirm this CD was used to assess the secondary structure of the samples that were incubated for 24 hours.
(§5) Protein Stability Assessment Using Circular Dichroism and SDS-PAGE. Insulin and antibody formulations were incubated at 37° C. for one hour and subsequently dialyzed against 10 mM Sodium Phosphate pH 7.4. In preparation for circular dichroism (CD) and SDS-PAGE, the post-dialysis concentration was measured with UV Spectrophotometry (Thermo Scientific NanoDrop One) and adjusted to 200 μg/mL. CD was performed by loading quartz cuvettes (Starna Cells Spectrosil Quartz 1-Q-1), with 200 μL of the sample, into a CD spectrophotometer (Jasco J-815). Mean ellipticity was measured from 190 to 250 nm.
To assess antibody aggregation, SDS-PAGE was performed using vertical gel electrophoresis (BioRad Mini-PROTEAN Tetra Cell) loaded with precast polyacrylamide gels (BioRad TGX 4-15%) according to the manufacturer protocol. To form SDS complexes, samples were incubated in 1× Lammeli buffer for 10 minutes at 70° C. before loading in the gel. After 30 minutes of electrophoresis, the gel was removed and protein bands stained with Coumassie dye.

rituximab [8] = test: SPADE-mAb stability by circular dichroism; format: physicochemical; details: 37 C for 24 hours
Procedure: as §4
as §5, with “CD was performed by loading quartz cuvettes (Starna Cells Spectrosil Quartz 1-Q-1), with 200 μL of the sample, into a CD spectrophotometer (Jasco J-815).” left out

[9] = rat, in vivo, 10 mg/kg; cited from earlier work
[10] = molecular target: Type I Human Collagen (human) (UniProt P02452); test: dynamic light scattering time course after mixing with collagen
Sequence of Type I Human Collagen (human) (P02452 179-1192 limits assumed, chain 1 of 2): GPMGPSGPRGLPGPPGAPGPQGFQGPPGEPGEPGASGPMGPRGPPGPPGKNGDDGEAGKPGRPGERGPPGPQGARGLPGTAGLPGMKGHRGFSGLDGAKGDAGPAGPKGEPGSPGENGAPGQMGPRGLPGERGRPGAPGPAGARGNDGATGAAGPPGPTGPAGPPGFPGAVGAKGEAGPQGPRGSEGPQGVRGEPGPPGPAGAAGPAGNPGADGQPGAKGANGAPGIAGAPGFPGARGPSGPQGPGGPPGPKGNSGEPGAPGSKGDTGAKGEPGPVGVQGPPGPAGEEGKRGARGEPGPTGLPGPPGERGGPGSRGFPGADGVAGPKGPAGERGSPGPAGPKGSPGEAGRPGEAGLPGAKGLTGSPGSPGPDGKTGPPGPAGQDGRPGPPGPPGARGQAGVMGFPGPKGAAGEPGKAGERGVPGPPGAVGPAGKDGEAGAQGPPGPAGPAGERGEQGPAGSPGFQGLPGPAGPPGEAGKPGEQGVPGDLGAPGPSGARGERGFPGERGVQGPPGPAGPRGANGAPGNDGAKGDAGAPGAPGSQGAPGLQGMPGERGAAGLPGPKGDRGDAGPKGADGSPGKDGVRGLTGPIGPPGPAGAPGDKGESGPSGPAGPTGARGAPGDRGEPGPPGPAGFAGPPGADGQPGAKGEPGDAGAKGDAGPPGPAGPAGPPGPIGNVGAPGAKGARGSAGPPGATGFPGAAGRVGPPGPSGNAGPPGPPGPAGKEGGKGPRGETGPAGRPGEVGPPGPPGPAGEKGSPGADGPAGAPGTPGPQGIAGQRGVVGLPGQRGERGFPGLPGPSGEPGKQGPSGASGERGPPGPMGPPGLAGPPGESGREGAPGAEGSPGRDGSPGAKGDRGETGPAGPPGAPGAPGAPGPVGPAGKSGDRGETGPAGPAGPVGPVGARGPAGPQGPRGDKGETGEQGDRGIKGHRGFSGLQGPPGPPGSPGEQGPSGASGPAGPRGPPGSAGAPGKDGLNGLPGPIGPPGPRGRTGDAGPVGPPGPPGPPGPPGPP
Sequence of Type I Human Collagen (human) (P08123 91-1104 limits assumed, chain 2 of 2, further chain): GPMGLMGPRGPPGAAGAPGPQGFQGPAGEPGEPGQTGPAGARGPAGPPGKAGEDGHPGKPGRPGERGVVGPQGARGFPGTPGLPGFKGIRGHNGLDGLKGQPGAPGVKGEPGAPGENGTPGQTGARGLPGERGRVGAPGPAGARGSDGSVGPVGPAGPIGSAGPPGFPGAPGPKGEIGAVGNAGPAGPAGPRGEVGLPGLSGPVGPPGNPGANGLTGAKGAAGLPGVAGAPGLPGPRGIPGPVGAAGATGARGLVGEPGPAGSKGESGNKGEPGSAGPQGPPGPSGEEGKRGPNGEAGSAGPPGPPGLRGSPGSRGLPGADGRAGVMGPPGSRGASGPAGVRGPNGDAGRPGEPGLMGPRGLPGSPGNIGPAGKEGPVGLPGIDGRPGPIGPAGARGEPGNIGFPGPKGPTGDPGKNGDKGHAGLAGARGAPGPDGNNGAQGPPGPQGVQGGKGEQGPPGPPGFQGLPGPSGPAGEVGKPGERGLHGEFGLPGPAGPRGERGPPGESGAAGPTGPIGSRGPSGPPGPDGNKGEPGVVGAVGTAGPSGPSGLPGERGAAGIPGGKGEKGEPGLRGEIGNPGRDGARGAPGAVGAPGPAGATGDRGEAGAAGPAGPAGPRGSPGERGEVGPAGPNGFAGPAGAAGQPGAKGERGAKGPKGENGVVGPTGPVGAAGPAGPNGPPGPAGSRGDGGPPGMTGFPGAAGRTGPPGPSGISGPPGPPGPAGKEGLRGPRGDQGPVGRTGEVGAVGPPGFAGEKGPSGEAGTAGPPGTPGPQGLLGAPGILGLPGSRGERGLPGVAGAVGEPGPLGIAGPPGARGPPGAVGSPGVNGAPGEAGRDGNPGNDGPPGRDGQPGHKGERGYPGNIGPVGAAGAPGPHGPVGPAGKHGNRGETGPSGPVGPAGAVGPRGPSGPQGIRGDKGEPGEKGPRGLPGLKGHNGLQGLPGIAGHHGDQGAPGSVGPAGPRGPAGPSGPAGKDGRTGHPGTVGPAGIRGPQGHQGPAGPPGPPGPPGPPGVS

[11] = molecular target: Type I Human Collagen (human) (UniProt P02452); test: dynamic light scattering after mixing the insulin formulation with collagen
[12] = In vivo PK of insulin in ILs after subcutaneous injection; details: rats, insulin 1 U/kg, non-fasted
[13] = molecular target: Type I Human Collagen (human) (UniProt P02452); test: fluorescence polarization of Cy5.5-insulin mixed with Type I human collagen

Sequence of Cy 5.5 fluorescently-labeled insulin (ligand) (P01308 25-54): as the sequence (P01308 25-54 limits assumed, species assumed) above

insulin secondary structure (circular dichroism curves) (insulin [1]): match the saline negative control groups | secondary structure of the antibody (circular dichroism) (antibody [2]): not affected | antibody aggregation (SDS-PAGE) (antibody [3]): looked the same as the control | cold-chain stability (insulin [5]): stable through Day 28 | CD spectra of insulin versus control insulin in sodium phosphate buffer (insulin [6]): matched that of the control insulin | rituximab stability by SDS-PAGE (rituximab [7]; 10% (v/v) DES): faint band further up the gel | appropriate DES concentration for the SPADE-mAb formulation (from stability studies) (rituximab [7]; SDS-PAGE and CD stability studies): 5 % (v/v) | rituximab stability by SDS-PAGE (rituximab [7]; all DES concentrations apart from 10% (v/v)): stable | rituximab secondary structure by CD versus control (rituximab [8]; 10% (v/v) DES): shift in mean ellipticity
Substance: acetylcholinium hexenoate DES [aCH]
mean fluorescent intensity (GFP expression) (dendritic cell line): higher | percent of cells expressing GFP (dendritic cell line): increased | outcome of stressed aging test (insulin [4]): viable | non-specific insulin-collagen binding (fluorescence polarization) (Type I human collagen): inhibits non-specific insulin-collagen binding | rituximab secondary structure by CD versus control (rituximab [8]; DES concentrations other than 10% (v/v)): none of the other DES concentrations experienced this shift

Substance: hyaluronidase
increase of rituximab absorption [9]: 91%

cold-chain stability (insulin [5]): stable through Day 28 | CD spectra of insulin versus control insulin in sodium phosphate buffer (insulin [6]): matched that of the control insulin
Substance: cholinium hexenoate DES
outcome of stressed aging test (insulin [4]): viable

average particle diameter (z-avg) of the mixture with collagen over 60 min [10]: 100 nm | initial average particle diameter (z-avg) of the mixture with collagen [11]: 100 nm
Substance: regular insulin formulated in aCH (SPADE-insulin) (from UniProt P01308 25-54; P01308 90-110) (ligand)

Substance: acetylcholinium priopionate DES [aCP]
outcome of stressed aging test (insulin [4]): viable

average particle diameter (z-avg) of the mixture with collagen over 60 min [10]: > 5000 nm | initial average particle diameter (z-avg) of the mixture with collagen [11]: 100 nm
Substance: Humalog (insulin lispro) (ligand)

Substance: cholinium propionate DES [CP]
outcome of stressed aging test (insulin [4]): viable

Substance: acetylcholinium glycolate DES [aCG]
insulin secondary structure (circular dichroism curves) (insulin [1]): match the saline negative control groups | Cmax of serum insulin, greater than the choline variant [12]: 50%

fold average polarization, control (saline) over SPADE (aCH) [13]: 1.5 fold
Substance: Cy 5.5 fluorescently-labeled insulin (ligand)
